Source: patent US7750013B2, “N-oxides as prodrugs of piperazine and piperidine derivatives” (Solvay Pharmaceuticals, B.V., priority 2005, dated 2010)

Key:
Dopamine-D5 = Dopamine-D5 (Homo sapiens, UniProt P21918); assay: In vitro receptor affinity, Dopamine-D5; assay type: binding
Experimental: (§1) The binding data collected in the table below (Example 5: pharmacological test results) were either obtained by CEREP (128, rue Danton, 92500 Rueil-Malmaison, France) or at Solvay Pharmaceuticals B.V. (C. J. van Houtenlaan 36, 1381 CP Weesp, The Netherlands), using well documented standard procedures. The affinities for dopamine-D2 and 5-HT1A receptors for instance, was measured as described by Creese I, Schneider R and Snyder S H, [^3H]-Spiroperidol labels dopamine receptors in rat pituitary and brain, Eur J Pharmacol […], 46: 377-381 and Gozlan H, El Mestikawy S, Pichat L, Glowinsky J and Hamon M, 1983, Identification of presynaptic serotonin autoreceptors using a new ligand ^3H-PAT, Nature 1983, 305: 140-142.

5-HT2A = 5-HT2A (Homo sapiens, UniProt P28223); assay: In vitro receptor affinity, 5-HT2A; assay type: binding
Sequence of 5-HT2A (P28223 whole entry): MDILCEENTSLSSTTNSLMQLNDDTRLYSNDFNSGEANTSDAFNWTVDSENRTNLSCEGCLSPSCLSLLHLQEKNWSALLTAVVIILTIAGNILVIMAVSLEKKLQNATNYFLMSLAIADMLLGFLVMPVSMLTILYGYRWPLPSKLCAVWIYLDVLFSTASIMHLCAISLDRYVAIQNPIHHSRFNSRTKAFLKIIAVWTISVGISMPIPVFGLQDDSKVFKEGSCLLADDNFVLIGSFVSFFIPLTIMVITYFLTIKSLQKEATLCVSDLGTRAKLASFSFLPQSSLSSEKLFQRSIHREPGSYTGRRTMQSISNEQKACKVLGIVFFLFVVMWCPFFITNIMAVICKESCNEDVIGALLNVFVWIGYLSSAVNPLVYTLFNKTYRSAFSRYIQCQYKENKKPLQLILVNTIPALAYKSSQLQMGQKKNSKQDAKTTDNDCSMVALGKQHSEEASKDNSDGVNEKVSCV
Experimental: as §1

α1A-adrenergic = α1A-adrenergic (Rattus norvegicus, UniProt P43140); assay: In vitro receptor affinity, α1A-adrenergic; assay type: binding
Sequence of α1A-adrenergic (P43140 whole entry): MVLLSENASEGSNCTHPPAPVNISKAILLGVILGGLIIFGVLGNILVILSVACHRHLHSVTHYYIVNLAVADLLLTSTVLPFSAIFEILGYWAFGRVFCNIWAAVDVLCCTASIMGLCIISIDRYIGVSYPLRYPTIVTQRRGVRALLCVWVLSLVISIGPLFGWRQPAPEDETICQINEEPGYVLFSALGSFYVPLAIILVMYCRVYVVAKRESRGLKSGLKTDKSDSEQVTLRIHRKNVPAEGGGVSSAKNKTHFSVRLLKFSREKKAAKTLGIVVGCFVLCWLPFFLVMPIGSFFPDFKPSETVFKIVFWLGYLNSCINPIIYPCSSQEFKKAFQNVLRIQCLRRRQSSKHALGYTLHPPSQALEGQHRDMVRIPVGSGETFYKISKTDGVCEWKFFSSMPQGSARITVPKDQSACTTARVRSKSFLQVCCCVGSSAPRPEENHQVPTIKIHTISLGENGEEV
Experimental: as §1

5-HT1A = 5-HT1A (Homo sapiens, UniProt P08908); assay: In vitro receptor affinity, 5-HT1A; assay type: binding
Sequence of 5-HT1A (P08908 whole entry): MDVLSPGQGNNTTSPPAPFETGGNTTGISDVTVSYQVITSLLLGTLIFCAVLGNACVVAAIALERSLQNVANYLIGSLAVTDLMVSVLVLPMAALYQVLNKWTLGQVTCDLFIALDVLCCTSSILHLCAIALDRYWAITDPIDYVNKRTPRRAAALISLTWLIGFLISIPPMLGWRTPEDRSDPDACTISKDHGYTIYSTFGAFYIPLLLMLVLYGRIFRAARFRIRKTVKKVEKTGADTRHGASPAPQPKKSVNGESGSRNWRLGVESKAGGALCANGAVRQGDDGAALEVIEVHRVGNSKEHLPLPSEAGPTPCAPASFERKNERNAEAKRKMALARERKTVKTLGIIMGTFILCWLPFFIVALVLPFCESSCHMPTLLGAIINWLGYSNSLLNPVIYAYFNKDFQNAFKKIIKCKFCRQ
Experimental: as §1

α1-adrenergic = assay: In vitro receptor affinity, α1-adrenergic; assay type: binding; conditions: rat; radioligand [3H]-prazosin
Experimental: as §1

α2-adrenergic = assay: In vitro receptor affinity, α2-adrenergic; assay type: binding; conditions: rat; radioligand [3H]-RX 821002
Experimental: as §1

Dopamine-D2 = Dopamine-D2 (Homo sapiens, UniProt P14416); assay: In vitro receptor affinity, Dopamine-D2; assay type: binding
Sequence of Dopamine-D2 (P14416 whole entry): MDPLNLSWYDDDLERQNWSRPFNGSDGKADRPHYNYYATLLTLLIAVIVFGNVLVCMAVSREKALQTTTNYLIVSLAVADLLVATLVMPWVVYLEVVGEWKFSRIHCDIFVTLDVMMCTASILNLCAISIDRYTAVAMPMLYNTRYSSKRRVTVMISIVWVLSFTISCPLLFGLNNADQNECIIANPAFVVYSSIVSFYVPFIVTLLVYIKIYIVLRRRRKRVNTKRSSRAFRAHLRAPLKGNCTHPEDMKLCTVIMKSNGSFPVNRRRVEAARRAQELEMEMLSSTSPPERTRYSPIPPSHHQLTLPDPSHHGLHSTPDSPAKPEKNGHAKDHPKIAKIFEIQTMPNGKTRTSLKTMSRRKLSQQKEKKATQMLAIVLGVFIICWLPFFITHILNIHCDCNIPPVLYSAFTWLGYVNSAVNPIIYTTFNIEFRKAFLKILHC
Experimental: as §1

5-HT2C = 5-HT2C (Homo sapiens, UniProt P28335); assay: In vitro receptor affinity, 5-HT2C; assay type: binding
Sequence of 5-HT2C (P28335 33-458): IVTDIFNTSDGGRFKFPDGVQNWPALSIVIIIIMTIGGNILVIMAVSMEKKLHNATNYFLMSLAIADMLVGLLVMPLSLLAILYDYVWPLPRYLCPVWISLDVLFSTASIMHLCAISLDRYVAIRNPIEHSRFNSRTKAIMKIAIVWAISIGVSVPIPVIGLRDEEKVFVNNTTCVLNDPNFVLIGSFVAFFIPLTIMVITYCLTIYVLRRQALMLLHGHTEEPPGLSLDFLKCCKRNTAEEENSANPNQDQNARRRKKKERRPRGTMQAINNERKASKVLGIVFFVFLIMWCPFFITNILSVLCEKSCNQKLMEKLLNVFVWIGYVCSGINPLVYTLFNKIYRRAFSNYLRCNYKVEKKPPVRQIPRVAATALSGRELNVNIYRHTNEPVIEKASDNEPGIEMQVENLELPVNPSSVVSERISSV
Experimental: as §1

Dopamine-D2 receptor = assay: Apomorphine-induced climbing behaviour in mice; assay type: in vivo
Experimental: In Vivo Animal Model for Dopamine-D2 Receptor (Ant)Agonistic Activity
Apomorphine-induced climbing behaviour in mice (Costall B, Naylor R J and Nohria V, Differential actions of typical and atypical agents on two behavioural effects of apomorphine in the mouse, Brit J Pharmacol 1978, 63: 381-382).
For oral (p.o.) administration: to the desired quantity (0.5-5 mg) of the solid test compound in a glass tube, some glass beads were added and the solid was milled by vortexing for 2 minutes. After addition of 1 ml of a solution of 1% methylcellulose in water and 2% (v/v) of Poloxamer 188 (Lutrol F68), the compound was suspended by vortexing for 10 minutes. The pH was adjusted to 7. Remaining particles in the suspension were further suspended by using an ultrasonic bath.
For intravenous (i.v.) administration: compounds were dissolved in physiological saline (0.9% NaCl) and the pH was adjusted to 7.

Dopamine-D4 = Dopamine-D4 (Homo sapiens, UniProt P21917); assay: In vitro receptor affinity, Dopamine-D4; assay type: binding
Sequence of Dopamine-D4 (P21917 whole entry): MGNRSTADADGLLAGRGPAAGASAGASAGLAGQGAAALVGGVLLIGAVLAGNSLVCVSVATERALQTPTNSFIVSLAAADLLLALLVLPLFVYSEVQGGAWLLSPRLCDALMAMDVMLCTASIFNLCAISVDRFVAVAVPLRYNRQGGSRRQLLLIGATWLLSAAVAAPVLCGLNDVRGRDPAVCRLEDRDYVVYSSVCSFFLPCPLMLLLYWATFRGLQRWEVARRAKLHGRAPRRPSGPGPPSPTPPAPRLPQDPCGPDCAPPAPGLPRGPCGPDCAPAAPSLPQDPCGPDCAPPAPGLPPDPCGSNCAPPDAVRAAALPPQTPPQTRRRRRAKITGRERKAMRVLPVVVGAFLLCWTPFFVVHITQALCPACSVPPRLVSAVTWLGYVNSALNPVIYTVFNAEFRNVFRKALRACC
Experimental: as §1

Dopamine-D1 = Dopamine-D1 (Homo sapiens, UniProt P21728); assay: In vitro receptor affinity, Dopamine-D1; assay type: binding
Sequence of Dopamine-D1 (P21728 whole entry): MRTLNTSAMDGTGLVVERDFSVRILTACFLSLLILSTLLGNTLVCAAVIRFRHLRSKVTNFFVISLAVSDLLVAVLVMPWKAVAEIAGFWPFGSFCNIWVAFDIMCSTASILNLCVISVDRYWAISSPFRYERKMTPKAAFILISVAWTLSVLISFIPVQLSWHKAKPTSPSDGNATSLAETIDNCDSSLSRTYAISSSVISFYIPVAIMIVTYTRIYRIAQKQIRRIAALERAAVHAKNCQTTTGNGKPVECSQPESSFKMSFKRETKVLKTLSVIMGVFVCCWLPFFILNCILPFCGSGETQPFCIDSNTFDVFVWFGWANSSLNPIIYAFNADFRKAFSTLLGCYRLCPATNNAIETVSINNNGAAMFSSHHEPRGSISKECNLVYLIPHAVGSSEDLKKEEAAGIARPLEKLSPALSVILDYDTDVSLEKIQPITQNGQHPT
Experimental: as §1

[1] = tested on: 6-OH-dopamine induced turning behavior in rats; assay: 6-OH-dopamine induced turning behavior in rats; assay type: in vivo; conditions: Rattus norvegicus, po, read-out: Antagonism of 6-OH dopamine induced turning behavior after oral dosing: ED50
Experimental: 6-OH-dopamine induced turning behavior in rats (Ungerstedt U, 6-OH-DA induced degeneration of central monoamine neurons, Eur. J. Pharmacol. 1968 5: 107-110). Specifically:
Male rats (Wistar, Harlan, Netherlands; 400-500 g at time of experiment) are housed in a temperature (20-21±2° C.) and humidity controlled environment and receive water ad libitum except during experimental sessions. Food is restricted to approximately 15 g per rat per day. A 12-hour light-dark cycle (lights on 07.00-19.00 hour) is used. All experimental procedures are conducted in accordance with Dutch law and conform to local animal care and use committee stipulations.
Unilateral 6-hydroxydopamine (6-OHDA) lesions of the substantia nigra zona compacta are performed using a stereotaxic procedure. […] Good turning rats are defined as those which elicited at least 20 contralateral turns following amphetamine (2.5 mg/kg sc) in the 5 min time epoch beginning 25 min after administration and a mean of at least 20 contralateral turns recorded over a 30 min period after administration of apomorphine (0.25 mg/kg s.c.). […]
Following statistical randomization of the treatment groups rats are pretreated with compounds of the invention (0.1-3 mg/kg p.o.) or vehicle (2 ml/kg) and placed in the rotameters the contralateral rotational behaviour is then measured. […]

β2-adrenergic = β2-adrenergic (Homo sapiens, UniProt P07550); assay: In vitro receptor affinity, β2-adrenergic; assay type: binding
Sequence of β2-adrenergic (P07550 whole entry): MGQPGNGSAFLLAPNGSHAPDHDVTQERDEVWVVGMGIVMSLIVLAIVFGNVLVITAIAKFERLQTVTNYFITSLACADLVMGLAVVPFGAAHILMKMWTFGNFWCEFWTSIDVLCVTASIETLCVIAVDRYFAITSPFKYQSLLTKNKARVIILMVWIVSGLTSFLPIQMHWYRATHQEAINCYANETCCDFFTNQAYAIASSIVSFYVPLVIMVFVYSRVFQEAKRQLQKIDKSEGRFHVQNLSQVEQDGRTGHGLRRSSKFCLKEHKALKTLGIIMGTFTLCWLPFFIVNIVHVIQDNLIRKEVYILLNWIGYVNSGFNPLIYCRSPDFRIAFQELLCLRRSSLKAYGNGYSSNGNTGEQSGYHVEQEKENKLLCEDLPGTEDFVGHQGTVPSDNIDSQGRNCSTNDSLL
Experimental: as §1

5-HT1D = assay: In vitro receptor affinity, 5-HT1D; assay type: binding; conditions: bovine; radioligand [3H]-serotonin
Experimental: as §1

μ-opiate = μ-opiate (Rattus norvegicus, UniProt P33535); assay: In vitro receptor affinity, μ-opiate; assay type: binding
Sequence of μ-opiate (P33535 whole entry): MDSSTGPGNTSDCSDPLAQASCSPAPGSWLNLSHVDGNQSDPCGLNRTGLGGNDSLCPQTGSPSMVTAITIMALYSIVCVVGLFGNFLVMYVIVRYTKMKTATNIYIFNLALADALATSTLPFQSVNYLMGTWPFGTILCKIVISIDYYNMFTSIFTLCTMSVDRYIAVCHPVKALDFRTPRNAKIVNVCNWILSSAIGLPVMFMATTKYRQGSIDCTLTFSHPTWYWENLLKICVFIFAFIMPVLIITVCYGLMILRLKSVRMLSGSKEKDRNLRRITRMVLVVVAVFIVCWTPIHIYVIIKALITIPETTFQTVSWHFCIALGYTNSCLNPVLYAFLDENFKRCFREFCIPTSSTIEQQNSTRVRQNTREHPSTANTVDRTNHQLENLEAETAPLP
Experimental: as §1

α1B-adrenergic = α1B-adrenergic (Rattus norvegicus, UniProt P15823); assay: In vitro receptor affinity, α1B-adrenergic; assay type: binding
Sequence of α1B-adrenergic (P15823 whole entry): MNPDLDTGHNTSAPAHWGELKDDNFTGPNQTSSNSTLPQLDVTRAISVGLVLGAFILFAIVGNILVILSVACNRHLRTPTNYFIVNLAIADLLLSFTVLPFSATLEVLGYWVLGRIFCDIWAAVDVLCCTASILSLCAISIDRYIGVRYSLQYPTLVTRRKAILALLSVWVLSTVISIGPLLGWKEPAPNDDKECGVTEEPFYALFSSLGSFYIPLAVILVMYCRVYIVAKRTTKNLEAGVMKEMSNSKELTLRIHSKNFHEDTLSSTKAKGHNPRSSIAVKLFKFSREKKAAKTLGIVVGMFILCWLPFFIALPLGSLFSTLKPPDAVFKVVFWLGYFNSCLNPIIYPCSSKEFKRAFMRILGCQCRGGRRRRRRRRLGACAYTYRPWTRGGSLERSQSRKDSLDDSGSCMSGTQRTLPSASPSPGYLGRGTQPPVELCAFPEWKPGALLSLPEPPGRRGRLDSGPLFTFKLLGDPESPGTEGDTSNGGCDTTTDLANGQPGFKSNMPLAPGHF
Experimental: as §1

Sequence of Dopamine-D5 (P21918 whole entry): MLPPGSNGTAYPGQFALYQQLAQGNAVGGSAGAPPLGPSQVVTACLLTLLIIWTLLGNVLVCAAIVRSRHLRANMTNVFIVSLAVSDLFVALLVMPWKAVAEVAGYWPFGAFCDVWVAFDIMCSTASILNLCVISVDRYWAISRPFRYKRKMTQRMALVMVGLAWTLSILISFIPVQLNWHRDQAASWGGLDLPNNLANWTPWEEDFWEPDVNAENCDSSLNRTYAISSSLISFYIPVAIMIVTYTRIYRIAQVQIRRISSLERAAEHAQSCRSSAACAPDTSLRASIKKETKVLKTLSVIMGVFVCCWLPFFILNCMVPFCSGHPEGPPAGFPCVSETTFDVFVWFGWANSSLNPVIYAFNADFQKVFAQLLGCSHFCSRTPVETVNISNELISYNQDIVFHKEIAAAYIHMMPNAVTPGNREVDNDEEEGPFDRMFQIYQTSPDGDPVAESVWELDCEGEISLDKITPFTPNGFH

For `C[N+]1([O-])CCN(c2cccc3[nH]c(=O)oc23)CC1` [N-oxide of SLV308, N-Oxide of SLV308], which Ki (Dopamine-D5) is on record?
The Ki was > 1000 nM.

What about the Ki (5-HT2A) of the same compound?
The Ki was > 1000 nM.

What about the Ki (α1A-adrenergic) of the same compound?
The Ki was 630 nM.

And the Ki (5-HT1A)?
The Ki was 200 nM.

And the Ki (α1-adrenergic)?
Its Ki is > 1000 nM.

What about the Ki (α2-adrenergic) of the same compound?
The Ki was 500 nM.

And the Ki (Dopamine-D2)?
The Ki was > 1000 nM.

And the “Factor by which dopamine-D2 receptor affinities differ (N-oxide vs SLV308)” value (Dopamine-D2; potency ratio)?
The value was ≥ 100.

What about the Ki (5-HT2C) of the same compound?
Its Ki is > 1000 nM.

What about the “In vivo activity compared with the parent compound (in words)” value (Dopamine-D2 receptor; administered intravenously) of the same compound?
Its value is “approximately one tenth of the activity of the parent compound”.

And the “Antagonism of apomorphine induced climbing behavior after intravenous dosing: ED50” value (Dopamine-D2 receptor; mice, i.v.)?
Its value is 0.90 mg/kg.

And the “Antagonism of apomorphine induced climbing behavior after oral dosing: ED50” value (Dopamine-D2 receptor; mice, oral)?
The value was 0.79 mg/kg.

And the “In vivo activity compared with the parent compound (in words)” value (Dopamine-D2 receptor; oral administration)?
The value was “equipotent with SLV308”.

What about the Ki (Dopamine-D4) of the same compound?
Its Ki is 130 nM.

And the “Factor by which affinities for dopamine-D4 receptors differ (N-oxide vs SLV308)” value (Dopamine-D4; potency ratio)?
The value was 10.

And the Ki (Dopamine-D1)?
Its Ki is > 1000 nM.

What about the ED50 [1] of the same compound?
Its ED50 is < 1 mg/kg.

And the Ki (β2-adrenergic)?
Its Ki is > 1000 nM.

What about the Ki (5-HT1D) of the same compound?
The Ki was > 1000 nM.

What about the Ki (μ-opiate) of the same compound?
The Ki was > 1000 nM.

And the Ki (α1B-adrenergic)?
The Ki was 400 nM.
